Source: patent US20220242844A1, “CANNABINOID DERIVATIVES” (CANOPY GROWTH CORPORATION, priority 2019, published 2022)
Where two headings read alike, the source gives them in different places.

Tests used:
human CB1 receptor = target: T1, human CB1 receptor (Homo sapiens, UniProt P21554); assay: CB1 radioligand ([3H]CP 55,940) competitive binding assay; details: for Selectivity CB1: fold difference in binding affinity, CB1 over CB2, 1.00 = about the same affinity for both receptors
T1 construct: host or cells: CHO-K1 (Chinese hamster ovary) cells, stably transfected; membranes prepared in house

human CB2 receptor = target: T2, human CB2 receptor (Homo sapiens, UniProt P34972); assay: CB2 radioligand ([3H]CP 55,940) competitive binding assay; details: for Selectivity CB2: fold difference in binding affinity, CB2 over CB1, 1.00 = about the same affinity for both receptors
T2 construct: host or cells: CHO-K1 (Chinese hamster ovary) cells, stably transfected; membranes prepared in house

[1] = [3H]CP 55,940 displacement, membranes of CHO-K1 cells expressing human CB1 receptor, read-out: CB1 IC50
[2] = [3H]CP 55,940 displacement, membranes of CHO-K1 cells expressing human CB2 receptor, read-out: CB2 IC50

T2 sequence (P34972 whole entry): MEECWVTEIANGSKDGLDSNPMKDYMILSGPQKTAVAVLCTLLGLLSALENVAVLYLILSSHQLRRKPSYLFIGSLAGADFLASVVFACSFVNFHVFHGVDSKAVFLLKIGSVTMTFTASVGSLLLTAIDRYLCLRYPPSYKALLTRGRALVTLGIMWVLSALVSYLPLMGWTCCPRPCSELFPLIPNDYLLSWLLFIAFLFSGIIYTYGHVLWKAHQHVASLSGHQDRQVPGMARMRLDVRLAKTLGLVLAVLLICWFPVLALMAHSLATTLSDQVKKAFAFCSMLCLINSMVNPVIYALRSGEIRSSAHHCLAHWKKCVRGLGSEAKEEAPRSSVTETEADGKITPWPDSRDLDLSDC
T1 sequence (P21554 whole entry): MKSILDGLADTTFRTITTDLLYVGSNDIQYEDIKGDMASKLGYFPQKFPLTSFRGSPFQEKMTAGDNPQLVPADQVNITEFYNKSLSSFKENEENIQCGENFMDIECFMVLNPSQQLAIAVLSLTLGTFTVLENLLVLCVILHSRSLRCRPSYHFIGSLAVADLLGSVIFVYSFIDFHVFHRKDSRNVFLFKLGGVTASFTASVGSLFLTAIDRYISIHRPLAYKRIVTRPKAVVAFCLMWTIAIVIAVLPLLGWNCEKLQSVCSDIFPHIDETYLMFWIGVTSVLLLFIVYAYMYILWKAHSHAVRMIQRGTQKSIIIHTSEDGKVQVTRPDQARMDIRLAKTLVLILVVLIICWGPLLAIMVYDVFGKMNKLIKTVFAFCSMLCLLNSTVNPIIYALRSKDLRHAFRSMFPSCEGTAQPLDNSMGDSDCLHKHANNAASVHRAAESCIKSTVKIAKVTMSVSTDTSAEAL

For C=C(C)[C@@H]1CCC(C)=C[C@H]1c1c(O)cc(CCCCC)c2c1OC(CC)OC2=O (some centres unmarked) [Compound 17d, 2-ethyl-7-hydroxy-8-(3-methyl-6-(prop-1-en-2-yl)cyclohex-2-en-1-yl)-5-pentyl-4H-benzo[d][1,3]dioxin-4-one], the IC50 (human CB1 receptor; [1]) was 1 to 9.9 µM, the IC50 (human CB2 receptor; [2]) was < 1 µM and the “Selectivity CB2” value (human CB2 receptor) was 4.35 fold.

For C=C(C)[C@@H]1CCC(C)=C[C@H]1c1c(O)cc(CCC)c2c1OCOC2=O [Compound 23d, 7-hydroxy-8-(3-methyl-6-(prop-1-en-2-yl)cyclohex-2-en-1-yl)-5-propyl-4H-benzo[d][1,3]dioxin-4-one], the IC50 (human CB1 receptor; [1]) was 1 to 9.9 µM, the “Selectivity CB1” value (human CB1 receptor) was 1.00 fold and the IC50 (human CB2 receptor; [2]) was 1 to 9.9 µM. The “Selectivity CB2” value (human CB2 receptor) was 1.00 fold.

CCCCCc1cc(O)c(C2C=C(C)CCC2)c2c1C(=O)OC(CC(C)=O)(c1ccccc1)O2 (centres unmarked) [Compound 12c, 7-hydroxy-8-(3-methylcyclohex-2-en-1-yl)-2-(2-oxopropyl)-5-pentyl-2-phenyl-4H-benzo[d][1,3]dioxin-4-one] was tested, and the IC50 (human CB1 receptor) was 1 to 9.9 µM, the IC50 (human CB2 receptor) was 1 to 9.9 µM and the “Selectivity CB2” value (human CB2 receptor) was 1.37 fold.

C=C(C)[C@@H]1CCC(C)=C[C@H]1c1c(O)cc(CCCCC)c2c1OCOC2=O [Compound 1d, 7-hydroxy-8-(3-methyl-6-(prop-1-en-2-yl)cyclohex-2-en-1-yl)-5-pentyl-4H-benzo[d][1,3]dioxin-4-one] was tested, and the IC50 (human CB1 receptor; [1]) was 1 to 9.9 µM, the “Selectivity CB1” value (human CB1 receptor) was 1.00 fold and the IC50 (human CB2 receptor; [2]) was 1 to 9.9 µM. For the same molecule, the “Selectivity CB2” value (human CB2 receptor) was 1.00 fold.

C=C(C)[C@@H]1CCC(C)=C[C@H]1c1c(O)cc(CCCCC)c2c1OC(CC(C)=O)OC2=O (some centres unmarked) [Compound 14d, 7-hydroxy-8-(3-methyl-6-(prop-1-en-2-yl)cyclohex-2-en-1-yl)-2-(2-oxopropyl)-5-pentyl-4H-benzo[d][1,3]dioxin-4-one] was tested, and the IC50 (human CB1 receptor; [1]) was 10 to 19.9 µM, the IC50 (human CB2 receptor; [2]) was 1 to 9.9 µM and the “Selectivity CB2” value (human CB2 receptor) was 4.92 fold.

With CCCCCc1cc(O)c(C2C=C(C)CCC2)c2c1C(=O)OC(CC(C)=O)O2 (centres unmarked) [Compound 14c, 7-hydroxy-8-(3-methylcyclohex-2-en-1-yl)-2-(2-oxopropyl)-5-pentyl-4H-benzo[d][1,3]dioxin-4-one] the IC50 (human CB1 receptor; [1]) was 1 to 9.9 µM, the IC50 (human CB2 receptor; [2]) was 1 to 9.9 µM and the “Selectivity CB2” value (human CB2 receptor) was 2.06 fold.

In the case of CCCCCc1cc(O)c(C2C=C(C)CCC2)c2c1C(=O)OCO2 (centres unmarked) [Compound 1c, 7-hydroxy-8-(3-methylcyclohex-2-en-1-yl)-5-pentyl-4H-benzo[d][1,3]dioxin-4-one], the IC50 (human CB2 receptor; [2]) is reported as 1 to 9.9 µM.

With C=C(C)[C@@H]1CCC(C)=C[C@H]1c1c(O)cc(CCCCC)c2c1OC(C)OC2=O (some centres unmarked) [Compound 16d, 7-hydroxy-2-methyl-8-(3-methyl-6-(prop-1-en-2-yl)cyclohex-2-en-1-yl)-5-pentyl-4H-benzo[d][1,3]dioxin-4-one] the IC50 (human CB1 receptor) was 1 to 9.9 µM, the IC50 (human CB2 receptor) was 1 to 9.9 µM and the “Selectivity CB2” value (human CB2 receptor) was 2.44 fold.

For C=C(C)[C@@H]1CCC(C)=C[C@H]1c1c(O)cc(CCCCC)c2c1OC(C)(COC)OC2=O (some centres unmarked) [Compound 11d, 7-hydroxy-2-(methoxymethyl)-2-methyl-8-(3-methyl-6-(prop-1-en-2-yl)cyclohex-2-en-1-yl)-5-pentyl-4H-benzo[d][1,3]dioxin-4-one], the IC50 (human CB1 receptor) was > 20 µM, the IC50 (human CB2 receptor) was 10 to 19.9 µM and the “Selectivity CB2” value (human CB2 receptor) was 1.89 fold.

C=C(C)[C@@H]1CCC(C)=C[C@H]1c1c(O)cc(CCCCC)c2c1OC(C)(C)OC2=O [Compound 2d, 7-hydroxy-2,2-dimethyl-8-(3-methyl-6-(prop-1-en-2-yl)cyclohex-2-en-1-yl)-5-pentyl-4H-benzo[d][1,3]dioxin-4-one] was tested, and the IC50 (human CB1 receptor; [1]) was > 20 µM, the IC50 (human CB2 receptor; [2]) was 10 to 19.9 µM and the “Selectivity CB2” value (human CB2 receptor) was 2.00 fold.

CCCCCc1cc(O)c(C2C=C(C)CCC2)c2c1C(=O)OC1(CCCC1)O2 (centres unmarked) [Compound 9c, 7-hydroxy-8-(3-methylcyclohex-2-en-1-yl)-5-pentyl-spiro[1,3-benzodioxine-2,1′-cyclopentane]-4-one] was tested, and the IC50 (human CB1 receptor) was 10 to 19.9 µM, the IC50 (human CB2 receptor) was 1 to 9.9 µM and the “Selectivity CB2” value (human CB2 receptor) was 3.32 fold.

For CCCCCc1cc(O)c(C2C=C(C)CCC2)c2c1C(=O)OC(C)(C)O2 (centres unmarked) [Compound 2c, 7-hydroxy-2,2-dimethyl-8-(3-methylcyclohex-2-en-1-yl)-5-pentyl-4H-benzo[d][1,3]dioxin-4-one], the IC50 (human CB1 receptor) was 1 to 9.9 µM, the “Selectivity CB1” value (human CB1 receptor) was 2.76 fold and the IC50 (human CB2 receptor) was 10 to 19.9 µM.

With C=C(C)[C@@H]1CCC(C)=C[C@H]1c1c(O)cc(CCCCC)c2c1OC(CC(C)=O)(c1ccccc1)OC2=O (some centres unmarked) [Compound 12d, 7-hydroxy-8-(3-methyl-6-(prop-1-en-2-yl)cyclohex-2-en-1-yl)-2-(2-oxopropyl)-5-pentyl-2-phenyl-4H-benzo[d][1,3]dioxin-4-one] the IC50 (human CB1 receptor) was 1 to 9.9 µM, the “Selectivity CB1” value (human CB1 receptor) was 1.00 fold and the IC50 (human CB2 receptor) was 1 to 9.9 µM. For the same molecule, the “Selectivity CB2” value (human CB2 receptor) was 1.00 fold.

In the case of CCCCCc1cc(O)c(-c2cccc(C)c2)c2c1C(=O)OC(C)(C)O2 [Compound 2a, 7-hydroxy-2,2-dimethyl-8-(m-tolyl)-5-pentyl-1,3-benzodioxin-4-one], the IC50 (human CB1 receptor; [1]) is reported as 10 to 19.9 µM, the IC50 (human CB2 receptor; [2]) is reported as 1 to 9.9 µM and the “Selectivity CB2” value (human CB2 receptor) is reported as 3.08 fold.

In the case of CCCCCc1cc(O)c(-c2cccc(C)c2)c2c1C(=O)OC(CC(C)=O)(c1ccccc1)O2 (centres unmarked) [Compound 12a, 2-acetonyl-7-hydroxy-8-(m-tolyl)-5-pentyl-2-phenyl-1,3-benzodioxin-4-one], the IC50 (human CB1 receptor) is reported as > 20 µM, the IC50 (human CB2 receptor) is reported as 10 to 19.9 µM and the “Selectivity CB2” value (human CB2 receptor) is reported as 1.53 fold.

In the case of C=C(C)C1CCC(C)=CC1c1c(O)cc(CCCCC)c2c1OC(C)(CC(C)=O)OC2=O (centres unmarked) [Compound 7d, 7-hydroxy-2-methyl-8-(3-methyl-6-(prop-1-en-2-yl)cyclohex-2-en-1-yl)-2-(2-oxopropyl)-5-pentyl-4H-benzo[d][1,3]dioxin-4-one], the IC50 (human CB1 receptor) is reported as > 20 µM, the IC50 (human CB2 receptor) is reported as 1 to 9.9 µM and the “Selectivity CB2” value (human CB2 receptor) is reported as 13.33 fold.

C=C(C)C1CCC(C)=CC1c1c(O)cc(CCCCC)c2c1OC(c1ccccc1)OC2=O (centres unmarked) [Compound 3d, 7-hydroxy-8-(3-methyl-6-(prop-1-en-2-yl)cyclohex-2-en-1-yl)-5-pentyl-2-phenyl-4H-benzo[d][1,3]dioxin-4-one] was tested, and the IC50 (human CB1 receptor; [1]) was < 1 µM, the “Selectivity CB1” value (human CB1 receptor) was 2.53 fold and the IC50 (human CB2 receptor; [2]) was 1 to 9.9 µM.

In the case of C=C(C)[C@@H]1CCC(C)=C[C@H]1c1c(O)cc(CCC)c2c1OC(CC(C)=O)(c1ccccc1)OC2=O (some centres unmarked) [Compound 24d, 7-hydroxy-8-(3-methyl-6-(prop-1-en-2-yl)cyclohex-2-en-1-yl)-2-(2-oxopropyl)-2-phenyl-5-propyl-4H-benzo[d][1,3]dioxin-4-one], the IC50 (human CB1 receptor) is reported as 1 to 9.9 µM, the “Selectivity CB1” value (human CB1 receptor) is reported as 1.00 fold and the IC50 (human CB2 receptor) is reported as 1 to 9.9 µM. For the same molecule, the “Selectivity CB2” value (human CB2 receptor) was 1.00 fold.
